Reference: ChEMBL document CHEMBL1129513, “Nonpeptidic inhibitors of human neutrophil elastase. 7. Design, synthesis, and in vitro activity of a series of pyridopyrimidine trifluoromethyl ketones” (J Med Chem, 1996)
Values after ≈ are worked out from the molar mass of the structure shown.

Assays:
[1] = Solubility in 0.01 M sodium phosphate buffer at pH = 7.4; assay type: physicochemical
[2] = target: T1, Neutrophil elastase (Homo sapiens, UniProt P08246); assay: Inhibition of Human Neutrophil Elastase-catalyzed hydrolysis of the synthetic substrate MeO-Suc-Ala-Ala-Pro-Val-p- nitroanilide.
T1 sequence (P08246 whole entry): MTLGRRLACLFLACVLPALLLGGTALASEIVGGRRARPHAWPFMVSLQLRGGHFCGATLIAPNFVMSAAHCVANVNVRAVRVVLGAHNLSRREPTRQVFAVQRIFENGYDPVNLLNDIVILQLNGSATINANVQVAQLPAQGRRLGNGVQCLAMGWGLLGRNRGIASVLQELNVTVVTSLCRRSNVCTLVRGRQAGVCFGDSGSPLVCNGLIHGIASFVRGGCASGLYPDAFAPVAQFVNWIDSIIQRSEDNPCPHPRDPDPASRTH

| SMILES | solubility [1] | Ki [2] |
| --- | --- | --- |
| CC(C)C(NC(=O)Cn1cccc(NC(=O)OCc2ccccc2)c1=O)C(=O)C(F)(F)F (centres undefined) | 110 µg/mL (≈ 243 µM) |  |
| CC(C)[C@@H](NC(=O)Cn1c(-c2ccccc2)cc2c(=O)n(CC(=O)OCc3ccccc3)c(=O)[nH]c2c1=O)C(=O)C(F)(F)F |  | 2.8 nM |
| CC(C)C(NC(=O)Cn1c(-c2ccccc2)cc2c(O)nc(O)nc2c1=O)C(=O)C(F)(F)F (centres undefined) | 220 µg/mL (≈ 474 µM) | 15 nM |
| COC(Cn1c(=O)[nH]c2c(=O)n(CC(=O)NC(C(=O)C(F)(F)F)C(C)C)c(-c3ccccc3)cc2c1=O)OC (centres undefined) | 420 µg/mL (≈ 760 µM) | 12 nM |
| CC(C)[C@@H](NC(=O)Cn1c(-c2ccccc2)cc2c(=O)n(CC(N)=O)c(=O)[nH]c2c1=O)C(=O)C(F)(F)F | 130 µg/mL (≈ 249 µM) | 15 nM |
| COc1ccc(Cn2c(=O)[nH]c3c(=O)n(CC(=O)NC(C(=O)C(F)(F)F)C(C)C)c(-c4ccccc4)cc3c2=O)cc1 (centres undefined) | 230 µg/mL (≈ 393 µM) | 5.7 nM |
| CCOCCn1c(=O)[nH]c2c(=O)n(CC(=O)NC(C(=O)C(F)(F)F)C(C)C)c(-c3ccccc3)cc2c1=O (centres undefined) | 8 µg/mL (≈ 14.9 µM) | 7.5 nM |
| CC(C)C(NC(=O)Cn1ccc2c(=O)n(Cc3cccc4ccccc34)c(=O)[nH]c2c1=O)C(=O)C(F)(F)F (centres undefined) |  | 26 nM |
| CC(C)C(NC(=O)Cn1c(-c2ccccc2)cc2c(=O)n(CCN3CCOCC3)c(=O)[nH]c2c1=O)C(=O)C(F)(F)F (centres undefined) | 300 µg/mL (≈ 519 µM) | 8.4 nM |
| CNC(=O)Cn1c(=O)[nH]c2c(=O)n(CC(=O)NC(C(=O)C(F)(F)F)C(C)C)c(-c3ccccc3)cc2c1=O (centres undefined) | 100 µg/mL (≈ 187 µM) | 22 nM |
| CC(C)C(NC(=O)Cn1ccc2c(=O)n(CCc3cccc4ccccc34)c(=O)[nH]c2c1=O)C(=O)C(F)(F)F (centres undefined) |  | 21 nM |
| CC(C)C(NC(=O)Cn1c(-c2ccccc2)cc2c(=O)n(CC(=O)NCc3ccccc3)c(=O)[nH]c2c1=O)C(=O)C(F)(F)F (centres undefined) |  | 9.9 nM |
| CC(C)C(NC(=O)Cn1c(-c2ccccc2)cc2c(=O)n(N(C)C)c(=O)[nH]c2c1=O)C(=O)C(F)(F)F (centres undefined) | 320 µg/mL (≈ 631 µM) | 19 nM |

Further lines, results first:

| solubility [1] | Ki [2] | SMILES |
| --- | --- | --- |
|  | 310 nM | CC(=O)Cn1c(=O)[nH]c2c(=O)n(CC(=O)NC(C(=O)C(F)(F)F)C(C)C)ccc2c1=O (centres undefined) |
| 730 µg/mL (≈ 1530 µM) | 160 nM | CC(C)C(NC(=O)Cn1ccc2c(=O)n(Cc3ccccc3)c(=O)[nH]c2c1=O)C(=O)C(F)(F)F (centres undefined) |
|  | 42 nM | CC(C)C(NC(=O)Cn1ccc2c(=O)n(CCc3ccccc3)c(=O)[nH]c2c1=O)C(=O)C(F)(F)F (centres undefined) |
| 44 µg/mL (≈ 92 µM) | 10 nM | CC(C)C(NC(=O)Cn1c(-c2ccccc2)cc2c(=O)n(C)c(=O)[nH]c2c1=O)C(=O)C(F)(F)F (centres undefined) |
|  | 490 nM | COC(=O)Cn1c(=O)[nH]c2c(=O)n(CC(=O)N[C@@H](C(=O)C(F)(F)F)C(C)C)ccc2c1=O |
|  | 290 nM | CC(C)[C@@H](NC(=O)Cn1ccc2c(=O)n(CC(=O)OC(C)(C)C)c(=O)[nH]c2c1=O)C(=O)C(F)(F)F |
|  | 74 nM | CC(C)C(NC(=O)Cn1ccc2c(=O)n(CC(=O)c3ccccc3)c(=O)[nH]c2c1=O)C(=O)C(F)(F)F (centres undefined) |
|  | 16 nM | CC(C)C(NC(=O)Cn1ccc2c(=O)n(C(C)(C)Cc3ccccc3)c(=O)[nH]c2c1=O)C(=O)C(F)(F)F (centres undefined) |
|  | 620 nM | CC(C)C(NC(=O)Cn1ccc2c(=O)n(C)c(=O)[nH]c2c1=O)C(=O)C(F)(F)F (centres undefined) |
|  | 330 nM | CC(C)C(NC(=O)Cn1ccc2c(=O)n(CCN3CCOCC3)c(=O)[nH]c2c1=O)C(=O)C(F)(F)F (centres undefined) |
|  | 690 nM | CC(C)[C@@H](NC(=O)Cn1ccc2c(=O)n(CC(=O)O)c(=O)[nH]c2c1=O)C(=O)C(F)(F)F |
| > 5000 µg/mL | 910 nM | CC(C)C(NC(=O)Cn1ccc2c(=O)[nH]c(=O)[nH]c2c1=O)C(=O)C(F)(F)F (centres undefined) |
|  | 230 nM | CC(C)C(NC(=O)Cn1ccc2c(=O)n([C@H]3C[C@@H]3c3ccccc3)c(=O)[nH]c2c1=O)C(=O)C(F)(F)F (some centres undefined) |
|  | 830 nM | CC(C)C(NC(=O)Cn1ccc2c(=O)n(-c3ccccc3)c(=O)[nH]c2c1=O)C(=O)C(F)(F)F (centres undefined) |
|  | 100 nM | COc1ccc(Cn2c(=O)[nH]c3c(=O)n(CC(=O)NC(C(=O)C(F)(F)F)C(C)C)ccc3c2=O)cc1 (centres undefined) |
